# Experimental data from BigSolDB 2.1.
# Conditions: in DMF
solubility (mole fraction) (303.2 K),solubility (mole fraction) (313.2 K),solubility (mole fraction) (323.2 K),solubility (mole fraction) (333.2 K),solubility (mole fraction) (343.2 K),solubility (mole fraction) (353.2 K),SMILES
2.64e-05,3.51e-05,4.56e-05,6.16e-05,8.67e-05,0.000122,Clc1ccc(-c2c3nc(c(-c4ccc(Cl)cc4)c4ccc([nH]4)c(-c4ccc(Cl)cc4)c4nc(c(-c5ccc(Cl)cc5)c5ccc2[nH]5)C=C4)C=C3)cc1
9.76e-05,0.000107,0.00012,0.000136,0.000166,–,C1=Cc2nc1c(-c1ccccc1)c1ccc([nH]1)c(-c1ccccc1)c1nc(c(-c3ccccc3)c3ccc([nH]3)c2-c2ccccc2)C=C1
